# Measured values from patent publication US20050080113A1, “Medicinal compositions” (priority 2001, published 2005).
row,melting point,SMILES
1,182 to 184 °C,"Cc1cccc(-c2nc(-c3ccc(S(C)(=O)=O)cc3)sc2-c2cc(C)nc(C)c2)c1 [H 58-2, 5 (2,6 dimethyl-4-pyridyl)-4 (3 methylphenyl)-2 (4 methylsulfonylphenyl)-1,3-thiazole]"
2,154 to 155 °C,"Cc1cccc(-c2nc(NC(=O)NOc3ccccc3)sc2-c2ccnc(C)c2)c1 [H 64, N-[4 (3 methylphenyl)-5 (2-methyl-4 pyridyl)-1,3 thiazol-2 yl]-N′-phenyloxyurea]"
3,133 to 134 °C,"Cc1cccc(-c2nc(-c3ccc([S+](C)[O-])cc3)sc2-c2cc(C)nc(C)c2)c1 (centres unmarked) [H 55, 5 (2,6 dimethyl-4 pyridyl)-4 (3 methylphenyl)-2 (4-methylsulfinylphenyl)-1,3 thiazole]"
4,173 to 174 °C,"Cc1cccc(-c2nc(-c3ccc(S(C)(=O)=O)cc3)sc2-c2ccnc(N(C)C3CCCCC3)c2)c1 [H 37-2, N-cyclohexyl-N-methyl-4-[4 (3 methylphenyl)-2 (4 methylsulfonylphenyl)-1,3 thiazol-5-yl]-2 pyridylamine]"
5,131 to 132 °C,"CCC(=O)Nc1cc(-c2sc(C(C)O)nc2-c2cccc(Cl)c2)ccn1 (centres unmarked) [H 105, N-[4 [4 (3 chlorophenyl)-2-(1 hydroxyethyl)-1,3 thiazol-5 yl]-2 pyridyl]propionamide]"
6,216 to 217 °C,"CC(=O)Nc1cc(-c2sc(-c3ccc(S(C)(=O)=O)cc3)nc2-c2cccc(Cl)c2)ccn1 [H 58-6, N-[4-[4-(3-chlorophenyl)-2-(4-methylsulfonylphenyl)-1,3-thiazol-5-yl]-2-pyridyl]acetamide]"
7,181 to 182 °C,"CSc1ccc(-c2nc(-c3cccc(C)c3)c(-c3ccnc(NC(C)=O)c3)s2)cc1 [H 82-12, N-[4 [4 (3 methylphenyl)-2 [4 (methylthio)phenyl]-1,3 thiazol-5 yl]-2 pyridyl]acetamide]"
8,172 to 173 °C,"Cc1cccc(-c2nc(-c3ccc(S(C)(=O)=O)cc3)sc2-c2ccnc(CO)c2)c1 [H 72, 4 [4 (3 methylphenyl)-2 (4 methylsulfonylphenyl)-1,3 thiazol-5 yl]-2 pyridylmethanol]"
9,123 to 125 °C,"CCc1nc(-c2cccc(C)c2)c(-c2ccnc(NC(=O)C3CCCC3)c2)s1 [H 29-1, N-[4 [2 ethyl-4 (3-methylphenyl)-1,3 thiazol-5 yl]-2-pyridyl]cyclopentanecarboxamide]"
10,68 to 69 °C,"CCc1nc(-c2cccc(C)c2)c(-c2ccnc(CC#N)c2)s1 [H 71, 5 (2 cyanomethyl-4 pyridyl)-2 ethyl-4 (3 methylphenyl)-1,3-thiazole]"
11,110 to 112 °C,"CCc1nc(-c2cccc(C)c2)c(-c2ccnc(NC3CCCCC3)c2)s1 [H 36-4, N-cyclohexyl-4-[2-ethyl-4-(3-methylphenyl)-1,3-thiazol-5-yl]-2-pyridylamine]"
12,112 to 113 °C,"CCc1cccc(-c2nc(CC)sc2-c2ccnc(NC(C)=O)c2)c1 [H 82-7, N-[4 [2 ethyl-4 (3-ethylphenyl)-1,3 thiazol-5 yl]-2 pyridyl]acetamide]"
13,139 to 140 °C,"CCC(=O)Nc1cc(-c2sc(CC)nc2-c2ccccc2)ccn1 [H 84-1, N-[4 (2 ethyl-4 phenyl-1,3-thiazol-5 yl)-2 pyridyl]propionamide]"
14,142 to 145 °C,"CC(=O)Nc1cc(-c2sc(C(C)O)nc2-c2cccc(Cl)c2)ccn1 (centres unmarked) [H 111-2, N-[4 [4 (3 chlorophenyl)-2-(1 hydroxyethyl)-1,3 thiazol-5 yl]-2 pyridyl]acetamide]"
15,121 to 122 °C,"CCC(=O)Nc1cc(-c2sc(CC)nc2-c2cccc(F)c2)ccn1 [H 84-5, N-[4 [2 ethyl-4 (3-fluorophenyl)-1,3 thiazol-5 yl]-2 pyridyl]propionamide]"
16,90 to 91 °C,"Cc1cccc(-c2nc(-c3ccc(F)cc3F)sc2-c2ccnc(C)c2)c1 [H 14-5, 2 (2,4 difluorophenyl)-4-(3 methylphenyl)-5 (2 methyl-4 pyridyl)-1,3 thiazole]"
17,119 to 120 °C,"CCc1nc(-c2ccc(SC)cc2)c(-c2ccnc(N)c2)s1 [H 20-5, 4 [2 ethyl-4 [4-(methylthio)phenyl]-1,3 thiazol-5 yl]-2 pyridylamine]"
18,152 to 154 °C,"CC(=O)Nc1cc(-c2sc(C(C)OC(=O)c3ccccc3)nc2-c2cccc(Cl)c2)ccn1 (centres unmarked) [H 103-1, 1 [5 (2 acetylamino-4-pyridyl)-4 (3 chlorophenyl)-1,3 thiazol-2 yl]ethyl benzoate]"
19,191 to 192 °C,"COc1ccc(C(=O)Nc2nc(-c3cccc(C)c3)c(-c3ccnc(NC4CCCCC4)c3)s2)cn1 [H 48-1, N-[5 (2 cyclohexylamino-4-pyridyl)-4 (3 methylphenyl)-1,3 thiazol-2 yl]-6-methoxynicotinamide]"
20,114 to 115 °C,"Cc1cccc(-c2nc(C)sc2-c2ccnc(NC(=O)Cc3ccccc3)c2)c1 [L 68-5, N-[4 [2 methyl-4 (3-methylphenyl)-1,3 thiazol-5 yl]-2 pyridyl]phenylacetamide]"
21,131 to 132 °C,"CC(F)(F)c1nc(-c2cccc(Cl)c2)c(-c2ccnc(N)c2)s1 [H 101-2, 4 [4 (3 chlorophenyl)-2-(1,1 difluoroethyl)-1,3 thiazol-5 yl]-2 pyridylamine]"
22,96 to 97 °C,"CSCCc1nc(-c2cccc(Cl)c2)c(-c2ccnc(N)c2)s1 [H 100-1, 4 [4 (3 chlorophenyl)-2-[2 (methylthio)ethyl]-1,3 thiazol-5 yl]-2 pyridylamine]"
23,102 to 103 °C,"CCC(=O)Nc1cc(-c2sc(C(C)OC(=O)c3ccccc3)nc2-c2cccc(C)c2)ccn1 (centres unmarked) [H 102-5, 1 [4 (3 methylphenyl)-5-(2 propionylamino-4 pyridyl)-1,3 thiazol-2 yl]ethyl benzoate]"
24,173 to 174 °C,"Cc1cccc(-c2sc(NC(=O)Nc3ccccc3)nc2-c2cc(C)nc(C)c2)c1 [H 52, N-[4 (2,6 dimethyl-4 pyridyl)-5 (3 methylphenyl)-1,3 thiazol-2 yl]-N′-phenylurea]"
25,178 to 179 °C,"CCc1nc(-c2ccc(F)cc2)c(-c2ccnc(NC(=O)Cc3ccccc3)c2)s1 [L 68-7, N-[4 [2 ethyl-4 (4-fluorophenyl)-1,3 thiazol-5 yl]-2 pyridyl]phenylacetamide]"
26,200 to 202 °C,"Cc1cccc(-c2nc(-c3ccc(S(C)(=O)=O)cc3)sc2-c2ccnc(N3CCOCC3)c2)c1 [H 36-8, 4 (3 methylphenyl)-2 (4-methylsulfonylphenyl)-5 (2 morpholino-4 pyridyl)-1,3 thiazole]"
27,119 to 120 °C,"CSc1ccc(-c2nc(-c3cccc(Cl)c3)c(-c3ccnc(NC(=O)C(C)(C)C)c3)s2)cc1 [H 30-12, N-[4 [4 (3 chlorophenyl)-2 [4 (methylthio)phenyl]-1,3 thiazol-5 yl]-2-pyridyl]pivalamide]"
28,205 to 206 °C,"Cc1cccc(-c2nc(N)sc2-c2ccnc(C)c2)c1 [H 7-4, [4-(3-methylphenyl)-5-(2-methyl-4-pyridyl)-1,3-thiazol-2-yl]amine]"
29,213 to 214 °C,"Cc1cccc(-c2nc(NC(=O)c3ccc(C)nc3)sc2-c2ccnc(NC3CCCC3)c2)c1 [H 46-2, N-[5 (2 cyclopentylamino-4 pyridyl)-4 (3 methylphenyl)-1,3 thiazol-2 yl]-6-methylnicotinamide]"
